Here are results for 34 substances from patent publication US20120016009A1, “Optimized Methods For Delivery Of DSRNA Targeting The PCSK9 Gene” (priority 2008, published 2012).

What is called IC50 is the point on the concentration scale where inhibition reaches its midpoint. Read a high IC50 as weaker potency in that assay.

The data set deals with PCSK9 mRNA. The data set is described as follows: PCSK9 siRNA screening in HepG2 cells (lipofectamine 2000 transfection, PCSK9 mRNA by Quantigene, normalized to GAP-DH). Particulars: for Mean percent remaining mRNA transcript at siRNA concentration/in cell type 3 nM/HepG2: 3 nM siRNA; for Mean percent remaining mRNA transcript at siRNA concentration/in cell type 30 nM/HepG2: 30 nM siRNA; for Mean percent remaining mRNA transcript at siRNA concentration/in cell type 100 nM/HepG2: 100 nM siRNA. Format: cell-based, human. The procedure, abridged:
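PCSK9 silencing was assessed in HepG2 cells by lipofectamine 2000 siRNA transfection in 96-well plates. Twenty-four hours later, lysates were analyzed with the Quantigene Explore Kit, with PCSK9 signal normalized to GAP-DH. Eight datapoints were collected per siRNA, and remaining transcript was expressed as a percentage of cells treated with an unrelated control siRNA duplex.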

In the oligonucleotide strings, read from the 5' end, every base follows the letter of its sugar. An asterisk marks phosphorothioate; unmarked linkages are phosphodiester. Other units and linkages are bracketed, terminal groups are in braces. A string of capitals states the bases alone. d = 2'-deoxy (DNA); m = 2'-O-methyl; r = 2'-OH (RNA)

Turning to “AD-9765: PCSK9 siRNA (sense rGmUrGmCmUrGrArGrGmCmCrAmCrGrArGrGmUmCdT*dT; antisense rGrArCrCrUrCrGrUrGrGrCrCrUmCrArGmCrArCdT*dT)”, the “Mean percent remaining mRNA transcript at siRNA concentration/in cell type 3 nM/HepG2” value came out at 74% and the “Mean percent remaining mRNA transcript at siRNA concentration/in cell type 30 nM/HepG2” value is on record as 82%.
With “AD-9326: PCSK9 siRNA (sense rGrCrArCrCrCrUrCrArUrArGrGrCrCrUrGrGrAdT*dT; antisense rUrCrCrArGrGrCrCrUrArUrGrArGrGrGrUrGrCdT*dT)”, the “Mean percent remaining mRNA transcript at siRNA concentration/in cell type 3 nM/HepG2” value came out at 51% and the “Mean percent remaining mRNA transcript at siRNA concentration/in cell type 30 nM/HepG2” value is reported as 35%.
Consider “AD-9675: PCSK9 siRNA (sense rGrGrGmCmCmCrAmCrArAmCrGmCmUmUmUmUrGrGdT*dT; antisense rCmCrArArArArGrCrGrUrUrGrUrGrGrGrCrCrCdT*dT)”, for which the “Mean percent remaining mRNA transcript at siRNA concentration/in cell type 30 nM/HepG2” value was found to be 78%.
Still for that read-out and setting: as for “AD-9668: PCSK9 siRNA (sense rAmUmCrGrArGrGrGmCrArGrGrGmUmCrAmUrGrGdT*dT; antisense rCmCrArUrGrArCrCrCrUrGrCrCrCrUrCrGrArUdT*dT)”, the figure is 92%.
Consider “AD-9593: PCSK9 siRNA (sense rCrArGrGrGrUrCrArUrGrGrUrCrArCrCrGrArCdT*dT; antisense rGrUrCrGrGrUrGrArCrCrArUrGrArCrCrCrUrGdT*dT)”, for which the “Mean percent remaining mRNA transcript at siRNA concentration/in cell type 30 nM/HepG2” value amounted to 55%.
Same read-out and setting: the same measure for “AD-9656: PCSK9 siRNA (sense rAmCmCrGrGrGmCrGrGrAmUrGrArAmUrAmCmCrAdT*dT; antisense rUrGrGmUrArUrUmCrArUrCrCrGrCrCrCrGrGrUdT*dT)”: 77%; for “AD-9612: PCSK9 siRNA (sense rArCrCrArCrCrGrGrGrArArArUrCrGrArGrGrGdT*dT; antisense rCrCrCrUrCrGrArUrUrUrCrCrCrGrGrUrGrGrUdT*dT)”: 122%.
“AD-9576: PCSK9 siRNA (sense rGrCrArGrArGrArCrUrGrArUrCrCrArCrUrUrCdT*dT; antisense rGrArArGrUrGrGrArUrCrArGrUrCrUrCrUrGrCdT*dT)”: the “Mean percent remaining mRNA transcript at siRNA concentration/in cell type 30 nM/HepG2” value amounted to 47%.
Still for that read-out and setting: as for “AD-9759: PCSK9 siRNA (sense mUrGrGmUmCrAmCmCrGmCmUrGmCmCrGrGmCrArAdT*dT; antisense rUrUrGrCrCrGrGmCrArGrCrGrGrUrGrArCmCrAdT*dT)”, the figure is 111%.
On the same count and under the same terms, as for “AD-9638: PCSK9 siRNA (sense rCrUrGrGrArGrUrUrUrArUrUrCrGrGrArArArAdT*dT; antisense rUrUrUrUrCrCrGrArArUrArArArCrUrCrCrArGdT*dT)”, the figure is 101%; as for “AD-9585: PCSK9 siRNA (sense rCrGrGrCrArArCrUrUrCrCrGrGrGrArCrGrArUdT*dT; antisense rArUrCrGrUrCrCrCrGrGrArArGrUrUrGrCrCrGdT*dT)”, 83%.
Consider “AD-9633: PCSK9 siRNA (sense rUrGrGrUrCrArCrCrGrCrUrGrCrCrGrGrCrArAdT*dT; antisense rUrUrGrCrCrGrGrCrArGrCrGrGrUrGrArCrCrAdT*dT)”, for which the “Mean percent remaining mRNA transcript at siRNA concentration/in cell type 30 nM/HepG2” value is given as 75% and the “Mean percent remaining mRNA transcript at siRNA concentration/in cell type 100 nM/HepG2” value stood at 56%.
Take “AD-9664: PCSK9 siRNA (sense mCmCrGrGrGmCrGrGrAmUrGrArAmUrAmCmCrArGdT*dT; antisense rCrUrGrGmUrArUrUmCrArUrCrCrGrCrCrCrGrGdT*dT)”: the “Mean percent remaining mRNA transcript at siRNA concentration/in cell type 30 nM/HepG2” value amounted to 53%.
On to “AD-9573: PCSK9 siRNA (sense rArUrGrGrUrCrArCrCrGrArCrUrUrCrGrArGrAdT*dT; antisense rUrCrUrCrGrArArGrUrCrGrGrUrGrArCrCrArUdT*dT)”, for which the half-maximal inhibitory concentration (IC50) is 1.6 nM, the “Mean percent remaining mRNA transcript at siRNA concentration/in cell type 3 nM/HepG2” value is 42% and the “Mean percent remaining mRNA transcript at siRNA concentration/in cell type 30 nM/HepG2” value was 36%.
Consider “AD-9586: PCSK9 siRNA (sense rGrArCrArUrCrArUrUrGrGrUrGrCrCrUrCrCrAdT*dT; antisense rUrGrGrArGrGrCrArCrCrArArUrGrArUrGrUrCdT*dT)”, for which the “Mean percent remaining mRNA transcript at siRNA concentration/in cell type 30 nM/HepG2” value worked out at 104% and the “Mean percent remaining mRNA transcript at siRNA concentration/in cell type 100 nM/HepG2” value was found to be 81%.
Turning to “AD-9581: PCSK9 siRNA (sense rUrGrCrGrCrGrUrGrCrUrCrArArCrUrGrCrCrAdT*dT; antisense rUrGrGrCrArGrUrUrGrArGrCrArCrGrCrGrCrAdT*dT)”, the “Mean percent remaining mRNA transcript at siRNA concentration/in cell type 30 nM/HepG2” value was determined as 35%.
Take “AD-9756: PCSK9 siRNA (sense rGrGrGmCrArGrGrGmUmCrAmUrGrGmUmCrAmCmCdT*dT; antisense rGrGrUrGrArCmCrArUrGrArCrCrCrUrGrCrCrCdT*dT)”: the “Mean percent remaining mRNA transcript at siRNA concentration/in cell type 30 nM/HepG2” value turned out to be 63%.
In the case of “AD-9324: PCSK9 siRNA (sense rGrCrCrArUrCrUrGrCrUrGrCrCrGrGrArGrCrCdT*dT; antisense rGrGrCrUrCrCrGrGrCrArGrCrArGrArUrGrGrCdT*dT)”, the “Mean percent remaining mRNA transcript at siRNA concentration/in cell type 3 nM/HepG2” value came out at 67% and the “Mean percent remaining mRNA transcript at siRNA concentration/in cell type 30 nM/HepG2” value is recorded as 59%.
Turning to “AD-9701: PCSK9 siRNA (sense mCmCrGmCmUrGmCmCrGrGmCrArAmCmUmUmCmCrGdT*dT; antisense rCrGrGrArArGrUrUrGrCrCrGrGmCrArGrCrGrGdT*dT)”, the “Mean percent remaining mRNA transcript at siRNA concentration/in cell type 30 nM/HepG2” value is 100%.
In the case of “AD-9600: PCSK9 siRNA (sense rGrUrCrGrUrGrCrUrGrGrUrCrArCrCrGrCrUrGdT*dT; antisense rCrArGrCrGrGrUrGrArCrCrArGrCrArCrGrArCdT*dT)”, the “Mean percent remaining mRNA transcript at siRNA concentration/in cell type 30 nM/HepG2” value was determined as 112%.
On the same count and under the same terms, as for “AD-9738: PCSK9 siRNA (sense rAmCmCrAmCmCrGrGrGrArArAmUmCrGrArGrGrGdT*dT; antisense rCrCrCrUrCrGrArUrUrUrCrCrCrGrGrUrGrGrUdT*dT)”, the figure is 83%.
Turning to “AD-9570: PCSK9 siRNA (sense rCrUrGrCrCrGrGrGrCrCrCrArCrArArCrGrCrUdT*dT; antisense rArGrCrGrUrUrGrUrGrGrGrCrCrCrGrGrCrArGdT*dT)”, the “Mean percent remaining mRNA transcript at siRNA concentration/in cell type 30 nM/HepG2” value was found to be 42% and the “Mean percent remaining mRNA transcript at siRNA concentration/in cell type 100 nM/HepG2” value is reported as 35%.
Consider “AD-9746: PCSK9 siRNA (sense mCrArGrGrArGmCmCrGrGrGrAmCrGmUmCrArGmCdT*dT; antisense rGrCrUrGrArCrGrUrCrCrCrGrGrCrUrCrCrUrGdT*dT)”, for which the “Mean percent remaining mRNA transcript at siRNA concentration/in cell type 30 nM/HepG2” value was determined as 89%.
On to “AD-9543: PCSK9 siRNA (sense rCrGrCrGrUrGrCrUrCrArArCrUrGrCrCrArArGdT*dT; antisense rCrUrUrGrGrCrArGrUrUrGrArGrCrArCrGrCrGdT*dT)”, for which the “Mean percent remaining mRNA transcript at siRNA concentration/in cell type 30 nM/HepG2” value is 51%.
Same read-out and setting: the same measure for “AD-9647: PCSK9 siRNA (sense mCmUmCmCmUrArGrAmCrAmCmCrArGmCrAmUrAmCdT*dT; antisense rGmUrArUrGrCrUrGrGrUrGrUrCmUrArGrGrArGdT*dT)”: 62%; for “AD-9565: PCSK9 siRNA (sense rUrArCrUrCrUrGrCrUrCrUrArUrGrCrCrArGrGdT*dT; antisense rCrCrUrGrGrCrArUrArGrArGrCrArGrArGrUrAdT*dT)”: 74%.
As to “AD-9712: PCSK9 siRNA (sense rGrAmCrAmUmCrAmUmUrGrGmUrGmCmCmUmCmCrAdT*dT; antisense rUrGrGrArGrGmCrArCmCrArArUrGrArUrGrUrCdT*dT)”, the “Mean percent remaining mRNA transcript at siRNA concentration/in cell type 30 nM/HepG2” value is 107%.
The same measure, in the same setting: as for “AD-9599: PCSK9 siRNA (sense rUrUrCrUrGrGrArUrGrGrCrArUrCrUrArGrCrCdT*dT; antisense rGrGrCrUrArGrArUrGrCrCrArUrCrCrArGrArAdT*dT)”, the figure is 139%.
In the case of “AD-9733: PCSK9 siRNA (sense rGrGrArGmCmUrGrGmUrGmCmUrArGmCmCmUmUrGdT*dT; antisense mCrArArGrGrCmUrArGmCrArCmCrArGrCrUrCrCdT*dT)”, the “Mean percent remaining mRNA transcript at siRNA concentration/in cell type 3 nM/HepG2” value stood at 73% and the “Mean percent remaining mRNA transcript at siRNA concentration/in cell type 30 nM/HepG2” value came to 78%.
Turning to “AD-9591: PCSK9 siRNA (sense rArCrUrGrUrCrCrCrUrCrCrUrUrGrArGrCrArCdT*dT; antisense rGrUrGrCrUrCrArArGrGrArGrGrGrArCrArGrUdT*dT)”, the “Mean percent remaining mRNA transcript at siRNA concentration/in cell type 30 nM/HepG2” value was 95% and the “Mean percent remaining mRNA transcript at siRNA concentration/in cell type 100 nM/HepG2” value is given as 75%.
“AD-9624: PCSK9 siRNA (sense rCrGrUrCrArGrCrUrCrCrArGrGrCrGrGrUrCrCdT*dT; antisense rGrGrArCrCrGrCrCrUrGrGrArGrCrUrGrArCrGdT*dT)”: the “Mean percent remaining mRNA transcript at siRNA concentration/in cell type 30 nM/HepG2” value came to 94%.
Take “AD-9625: PCSK9 siRNA (sense rCrUrGrGrUrGrGrArGrGrUrGrUrArUrCrUrCrCdT*dT; antisense rGrGrArGrArUrArCrArCrCrUrCrCrArCrCrArGdT*dT)”: the “Mean percent remaining mRNA transcript at siRNA concentration/in cell type 30 nM/HepG2” value stood at 88% and the “Mean percent remaining mRNA transcript at siRNA concentration/in cell type 100 nM/HepG2” value is given as 58%.
On to “AD-9603: PCSK9 siRNA (sense rUrUrUrCrUrGrGrArUrGrGrCrArUrCrUrArGrCdT*dT; antisense rGrCrUrArGrArUrGrCrCrArUrCrCrArGrArArAdT*dT)”, for which the “Mean percent remaining mRNA transcript at siRNA concentration/in cell type 30 nM/HepG2” value is on record as 123%.
The same measure, in the same setting: the same measure for “AD-9669: PCSK9 siRNA (sense mCrGmCrGmUrGmCmUmCrArAmCmUrGmCmCrArArGdT*dT; antisense rCrUrUrGrGmCrArGrUrUrGrArGmCrArCrGrCrGdT*dT)”: 97%.
